According to patent publication US10961222B2, “Chemical compound of isocitrate dehydrogenase inhibitor, and application thereof” (NANJING SANHOME PHARMACEUTICAL CO., LTD., priority 2016, dated 2021):

Columns and labels:
[1] = test system: U87-MG (IDH2-R140Q) subcutaneous xenograft tumor; experiment: Subcutaneous xenograft tumor caused by U87-MG (IDH2-R140Q) mutant cells in vivo: intratumor 2-HG; design: species or system BALB/c nude mice; details: for Intratumor 2-HG(%) after 10 days of administration: intragastric, mean, relative to U87-MG (IDH2-R140Q) control group; for ability of lowering 2-HG level compared with positive compound AG-221: U87-MG (IDH2-R140Q) subcutaneous xenograft model
Text: 1.2 Animals: BALB/c nude mice, 6-7 weeks old, female, 18-22 g, purchased from Nanjing Jinlaichang Company.
U87-MG (IDH2-R140Q) cells and U87-MG cells (wild type) were expanded, and cells in logarithmic growth phase were used for tumor inoculation in vivo. 16 mice were inoculated subcutaneously into the right lower back of the body at an amount of 2×10^6 cells/mouse (the volume ratio of cell suspension to Matrigel was 1:0.8).
The non-mutation control group was nude mice inoculated with U87-MG cells, and the test compound groups and vehicle control group were nude mice inoculated with U87-MG (IDH2-R140Q) cells.
Each group was intragastrically administered with a corresponding concentration of the compound solution, the administration volume was 100 μL/10 g body weight, and the control group was administered the same volume of blank vehicle.
After 10 days of administration, the mice were sacrificed. The tumors were exfoliated, homogenized, and the 2-HG content in the tumor was examined.
The 2-HG concentration in the homogenate of each animal tumor in each group was determined by LC-MS/MS. The percentage (2-HG %) was calculated; the calculation formula is as follows 2-HG %=(2-HG concentration of administration group tumor−2-HG concentration of U87-MG control group tumor)/(2-HG concentration of U87−MG(IDH2-R140Q) control group tumor−2-HG concentration of U87-MG control group tumor)×100%.

IDH2-R140Q mutant enzyme = biological target: T1, IDH2-R140Q mutant enzyme (Homo sapiens, UniProt P48735, R140Q); experiment: Inhibitory activity of compounds on IDH2-R140Q enzyme in vitro (diaphorase/resazurin fluorescence); assay type: biochemical; details: IDH2-R140Q, pre-incubated 16 h with enzyme and NADPH, reaction 1 h with α-ketoglutarate; read-out: R140Q IC50
T1 construct: purchased BPS 71100-1
T1 sequence (P48735 40-452 R140Q): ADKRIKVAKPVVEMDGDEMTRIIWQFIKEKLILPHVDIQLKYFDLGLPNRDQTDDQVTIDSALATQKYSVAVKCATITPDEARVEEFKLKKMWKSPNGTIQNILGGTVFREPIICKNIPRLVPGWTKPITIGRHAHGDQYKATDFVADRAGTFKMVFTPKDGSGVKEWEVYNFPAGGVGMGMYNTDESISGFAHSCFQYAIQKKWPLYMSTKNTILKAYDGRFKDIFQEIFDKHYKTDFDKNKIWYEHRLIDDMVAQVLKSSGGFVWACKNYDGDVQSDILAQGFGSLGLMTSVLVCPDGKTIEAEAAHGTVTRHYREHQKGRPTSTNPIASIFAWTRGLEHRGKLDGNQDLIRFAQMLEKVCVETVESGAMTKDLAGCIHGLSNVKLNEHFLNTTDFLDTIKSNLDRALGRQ
Experimental: Instrument: SpectraMax M3 Multi-Mode Microplate Reader, purchased from Molecular Devices.
In a 96-well plate, 40 μL of reaction buffer containing 2× enzyme (IDH2-WT or IDH2-R140Q) and cofactor (NADP or NADPH) was added to each well of the compound group and the DMSO control group, and 40 μL of reaction buffer containing 2× cofactor (NADP or NADPH) was added to each well of the enzyme-free control group.
20 μL of reaction buffer containing 4× compound to be tested was added to each well of the compound group. The compound was pre-formulated into 200× mother liquor with 100% DMSO; in the final reaction system, the concentration of DMSO was 0.5%. 20 μL of reaction buffer containing DMSO was added to each well of the DMSO control group; in the final reaction system, the concentration of DMSO was 0.5%.
The compound was mixed well with the enzyme and cofactor, and pre-incubated at room temperature for 16 h;
20 μL of reaction buffer containing 4× reaction substrate was added to each well. After mixed uniformly, the mixture was reacted at room temperature for 1 h.
3× termination and detection solution (it was prepared with reaction buffer, the final concentration of Diaphorase was 0.015 mg/mL, and the final concentration of Resazurin was 0.03 mM) was prepared. 40 μL of 3× termination and detection solution was added to each well of the enzyme reaction system. After mixed uniformly, the mixture was incubated at room temperature for 10 min;
Fluorescence values of two wells were obtained and averaged and the activity rate (Activity %) was calculated. The calculation formula: Activity %=(Measured data−Subtract background)/(DMSO Control−Subtract background)×100, wherein “Measured data” is fluorescence value of the compound in the pre-incubated wells, “Subtract background” is the fluorescence value of the enzyme-free control wells, and “DMSO Control” is the fluorescence value in the DMSO pre-incubated wells. Data was processed by GraphPad Prism v5.0 software and fitted to obtain IC50.

[2] = biological target: T2, U87-MG cell line of overexpressed mutant IDH2 (R140Q) (Homo sapiens, UniProt P48735, R140Q); experiment: Cell activity in vitro: 2-HG in culture supernatant of U87-MG (IDH2-R140Q) cells by LC-MS/MS; assay type: cell-based; details: U87-MG (IDH2-R140Q) cells, 72 hours, 2-HG in supernatant; read-out: IC50 (2-HG remaining compared to untreated)
T2 construct: expressed in transfected cells
T2 sequence (P48735 40-452 R140Q): T1 sequence (P48735 40-452 R140Q)
Experimental: 1.2 Cells: human glioblastoma cell line U87-MG, purchased from the American Type Culture Collection (ATCC);
Cell recovery: U87-MG (IDH2-R140Q) cells and U87-MG cells were put into a 37° C. water bath, then transferred to 15 mL of pre-warmed medium, centrifuged at 1000 rpm for 5 minutes, and the medium was discarded. The cells were resuspended in 15 mL of fresh medium, transferred to a T75 flask and cultured in a 37° C. incubator with 5% CO2. After 24 hours, the medium was changed to fresh medium.
Cell passage: The above-mentioned recovered cells were transferred to a 50 mL sterile centrifuge tube, centrifuged at 1000 rpm for 5 minutes, and the medium was discarded. The cells were resuspended evenly and counted. The cell density was adjusted appropriately in a 15 mL fresh medium, and then added to T75 culture flask. The culture flask was incubated in an incubator with 5% CO2 at 37° C.
After cells grown to a relatively high density in the culture dish, the cells were trypsinized, resuspended in medium (MEM+10% FBS), and counted. After adjusting the cell concentration, the resuspended cells were seeded in a 96-well plate at 5×10^3 cells per well. After inoculation, the cells were cultured for 24 hours until the cells adhered. The medium were sucked out, and the medium containing gradient concentration of compound was added, 100 μL per well. The cells were further cultured for 72 hours. The s 20 μL of upernatant was taken and put into a 2 mL 96-well sample-processing plate. 480 μL of dilution solution was added and shaken for mixing, and then centrifuged at 4500 rpm for 5 minutes. 200 μL of supernatant was transferred for LC-MS/MS injection analysis.
Column: Shim-pack XR-ODS 30L*2.0; mobile phase: acetonitrile-0.2% ammonia, 5 mM ammonium acetate aqueous solution; column temperature: 30° C.; flow rate: 0.4 mL/min; gradient elution conditions are as follows: […]
Atmospheric […] chemical ionization (APCI) was used. Source parameters was set as follows: IonSpray Voltage/IS-4500V; auxiliary gas 1 (Ion Source Gas 1/GS 1, N2), 55Arb; auxiliary gas 2 (Ion Source Gas 2, N2), 55Arb; auxiliary gas heating temperature (Temperature/TEM), 500° C.; curtain gas/CUR, 25Arb; collision gas/CAD, N2, 8 Pa.
Multi-ion reaction monitoring (MRM) in negative ion mode (Negative) was used. […] The internal standard (IS) MRM parameters: parent ion (Q 1 Mass), 178.0 Da; daughter ion (Q3 Mass), 149.0 Da; Decluster Potential (DP), −51V; collision voltage (Collision Energy/CE), −17 eV
By determining the 2-HG content in the cell culture supernatant of each well using LC-MS/MS, the mutant enzyme activity (2-HG remaining compared to untreated %) was calculated. The calculation formula: 2-HG remaining compared to untreated %=(Measured 2-HG level—U87-MG control 2-HG level)/(Untreated 2-HG level—U87-MG control 2-HG level)×100. […] Data were processed by GraphPad Prism v5.0 software and fitted to obtain IC50.

[3] = test system: human acute myeloid leukemia AM7577 cells; experiment: Human acute myeloid leukemia NOD/SCID animal model: survival; assay type: in vivo, NOD/SCID mice; details: gavage once a day for 14 days, 14 days after administration
Text: 1.1 Compounds to be tested: the compounds of the present disclosure prepared in the above examples, each of which was formulated into a solution in corresponding concentrations by using a vehicle (2% absolute ethanol:10% Solutol™: 88% physiological saline (v/v/v)).
1.2 Cells: human acute myeloid leukemia AM7577 cells, provided by Sino-American Crown Biotechnology (Beijing) Co., Ltd
1.4 Animals: NOD/SCID mice, 3-4 weeks old, female, purchased from Beijing Huakangkang Biotechnology Co., Ltd
Each mouse was inoculated through the tail vein at an amount of 2×10^6 cells resuspended in 100 uL of PBS.
Orbital blood samples of animals were collected weekly, labeled with human CD45, and the percentage of positive cells was detected. The animals were grouped when the percentage of peripheral blood CD45+ cells reached 5%. The proportion of peripheral blood CD45+ cells reached 5% on the 40th day after inoculation. After grouping, drugs were administered by gastric gavageonce once a day for 14 days.
The mortality rate of the animals after administration and the survival period of the surviving animals were observed.

Row | IC50 (IDH2-R140Q mutant enzyme) | IC50 [2] | SMILES | Intratumor 2-HG(%) after 10 days of administration ([1]; 12.5 mg/kg) | ability of lowering 2-HG level compared with positive compound AG-221 [1] | Numbers of surviving animals ([3]; 15 mg/kg, 8 animals per group) | Numbers of surviving animals ([3]; 45 mg/kg, AG-221 group 4 animals, Example 22B group 8) | Intratumor 2-HG(%) after 10 days of administration ([1]; 6.25 mg/kg) | Intratumor 2-HG(%) after 10 days of administration ([1]; 25 mg/kg)
1 | 23 nM | 27 nM | FC1(F)CCCN(c2nc(Nc3ccnc(C(F)(F)F)c3)nc(-c3cccc(C(F)(F)F)n3)n2)C1 [Example 2, 4-(3,3-Difluoropiperidin-1-yl)-6-(6-(trifluoromethyl)pyridin-2-yl)-N-(2-(trifluoromethyl)pyridin-4-yl)-1,3,5-triazin-2-amine] | 14% | – | – | – | – | –
2 | – | – | O[C@@]1(C(F)(F)F)CCN(c2nc(Nc3ccnc(C(F)(F)F)c3)nc(-c3cccc(C(F)(F)F)n3)n2)C1 [Example 22B, (S)-4-(3-trifluoromethyl-3-hydroxypyrrolidin-1-yl)-6-(6-(trifluoromethyl)pyridin-2-yl)-N-(2-(trifluoromethyl)pyridin-4-yl)-1,3,5-triazin-2-amine] | – | substantially superior | 7 | 7 | – | –
3 | 22 nM | 24 nM | OC1CCCN(c2nc(Nc3ccnc(C(F)(F)F)c3)nc(-c3cccc(C(F)(F)F)n3)n2)C1 (stereo not shown) [Example 3, 4-(3-Hydroxypiperidin-1-yl)-6-(6-(trifluoromethyl)pyridin-2-yl)-N-(2-(trifluoromethyl)pyridin-4-yl)-1,3,5-triazin-2-amine] | 22% | – | – | – | – | –
4 | 18 nM | – | N#C[C@H]1CCN(c2nc(Nc3ccnc(C(F)(F)F)c3)nc(-c3cccc(C(F)(F)F)n3)n2)C1 [Example 51, 4-((S)-3-cyanopyrrolidin-1-yl)-6-(6-(trifluoromethyl)pyridin-2-yl)-N-(2-(trifluoromethyl)pyridin-4-yl)-1,3,5-triazin-2-amine] | – | substantially superior | – | – | 38% | –
5 | 6.3 nM | 10.2 nM | FC(F)(F)c1cc(Nc2nc(OCC(F)(F)C(F)(F)F)nc(-c3cccc(C(F)(F)F)n3)n2)ccn1 [Example 45, 4-(2,2,3,3,3-pentafluoropropoxy)-6-(6-(trifluoromethyl)pyridin-2-yl)-N-(2-(trifluoromethyl)pyridin-4-yl)-1,3,5-triazin-2-amine] | – | substantially superior | – | – | 17% | –
6 | 10.1 nM | 15 nM | FC(F)(F)c1cc(Nc2nc(-c3cccc(C(F)(F)F)n3)nc(N3CC(F)(F)C(F)(F)C3)n2)ccn1 [Example 55, 4-(3,3,4,4-Tetrafluoropyrrolidin-1-yl)-6-(6-(trifluoromethyl)pyridin-2-yl)-N-(2-(trifluoromethyl)pyridin-4-yl)-1,3,5-triazin-2-amine] | – | substantially superior | – | – | 1% | –
7 | 30 nM | – | O[C@H]1CN(c2nc(Nc3ccnc(C(F)(F)F)c3)nc(-c3cccc(C(F)(F)F)n3)n2)C[C@@H]1F [Example 23, 4-((3S,4S)-3-hydroxy-4-fluoropyrrolidin-1-yl)-6-(6-(trifluoromethyl)pyridin-2-yl)-N-(2-(trifluoromethyl)pyridin-4-yl)-1,3,5-triazin-2-amine] | – | – | – | – | 67% | –
8 | 14.1 nM | 17.1 nM | OC1(C(F)(F)F)CN(c2nc(Nc3ccnc(C(F)(F)F)c3)nc(-c3cccc(C(F)(F)F)n3)n2)C1 [Example 34] | 24% | – | – | – | – | –
9 | 11 nM | 15 nM | FC1(F)CCN(c2nc(Nc3ccnc(C(F)(F)F)c3)nc(-c3cccc(C(F)(F)F)n3)n2)CC1 [Example 1, 4-(4,4-Difluoropiperidin-1-yl)-6-(6-(trifluoromethyl)pyridin-2-yl)-N-(2-(trifluoromethyl)pyridin-4-yl)-1,3,5-triazin-2-amine] | – | – | – | – | – | 22%
